These molecules were tested against T1, CX3CR1 (Homo sapiens, UniProt P49238) (assay: Inhibition of cell migration in fractalkine-induced chemotaxis assay). Details: fractalkine-induced (0.3 nM) migration of CX3CR1-expressing B300 cells; preincubated with test compound for 30 minutes; Transwell, 3.5 hours at 37°C.
T1 construct: expressed in transfected cells; host or cells: B300 cells
T1 sequence (P49238 1-355): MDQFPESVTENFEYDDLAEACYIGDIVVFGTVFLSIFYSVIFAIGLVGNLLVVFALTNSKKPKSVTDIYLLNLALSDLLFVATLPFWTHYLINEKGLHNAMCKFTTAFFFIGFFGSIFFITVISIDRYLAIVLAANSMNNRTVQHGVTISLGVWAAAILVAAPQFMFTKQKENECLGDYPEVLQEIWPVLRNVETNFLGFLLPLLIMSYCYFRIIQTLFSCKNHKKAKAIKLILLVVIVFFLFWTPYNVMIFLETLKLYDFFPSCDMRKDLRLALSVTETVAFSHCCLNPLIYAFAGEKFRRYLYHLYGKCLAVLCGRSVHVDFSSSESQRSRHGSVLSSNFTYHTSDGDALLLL
Format: cell-based
Procedure: The inhibitory effects of the example compounds on fractalkine-induced cell migration were examined using CX3CR1-transfected B300 cells
After equilibrating the Transwell plate (24-well clusters, pore size: 5 µm, manufactured by Corning Incorporated), a fractalkine solution (0.3 nM, manufactured by R&D Systems, Inc.) was added to the lower wells. CX3CR1-expressing B300 cells which were preincubated with the test compound (0.001, 0.003, 0.01 or 0.03 µM) for 30 minutes were placed in the upper layer wells, followed by incubation under the condition of 5% CO2 for 3.5 hours at 37°C. The number of cells migrated to the lower wells was evaluated using CellTiter (manufactured by Promega Corporation).
The inhibitory rate of the test compound on fractalkine-induced cell migration was calculated by the following formula, where [A] is the number of migrated cells in the presence of both fractalkine and the test compound, [B] is the number of migrated cells in the presence of fractalkine and in the absence of the test compound, and [C] is the number of migrated cells in the absence of both fractalkine and the test compound; the 50% inhibitory concentration (IC50) was calculated based on the inhibitory rate. Inhibitory rate (%) = [1-{(A-C)/(B-C)}] × 100

Going from `CCCC(F)CN1CCC(NC(=O)[C@]2(CC(=O)O)CN(Cc3c(Cl)cccc3C(F)(F)F)C[C@@H]2C)CC1` (stereo partly drawn) [Example 1, 2-[(3S,4R)-1-{[2-chloro-6-(trifluoromethyl)phenyl]methyl}-3-{[1-(2-fluoropentyl)piperidin-4-yl]carbamoyl}-4-methylpyrrolidin-3-yl]acetic acid] to `C[C@H]1CN(Cc2c(Cl)cccc2C(F)(F)F)C[C@@]1(CC(=O)O)C(=O)NC1CCN(CC2=CCCC2)CC1` [Example 7, 2-[(3S,4R)-1-{[2-Chloro-6-(trifluoromethyl)phenyl]methyl}-3-{[1-(cyclopent-1-en-1-ylmethyl)piperidin-4-yl]carbamoyl}-4-methylpyrrolidin-3-yl]acetic acid], the IC50 falls from 13 nM to 5 nM (2.6-fold).

Compared with `C[C@H]1CN(Cc2c(Cl)cccc2Cl)C[C@@]1(CC(=O)O)C(=O)NC1CCN(CC2CCC(F)(F)CC2)CC1` [Example 2, 2-[(3S,4R)-1-[(2,6-Dichlorophenyl)methyl]-3-({1-[(4,4-difluorocyclohexyl)methyl]piperidin-4-yl}carbamoyl)-4-methylpyrrolidin-3-yl]acetic acid], `C[C@H]1CN(Cc2c(Cl)cccc2C(F)F)C[C@@]1(CC(=O)O)C(=O)NC1CCN(CC2CCCCC2)CC1` [Example 14, 2-[(3S,4R)-1-{[2-Chloro-6-(difluoromethyl)phenyl]methyl}-3-{[1-(cyclohexylmethyl)piperidin-4-yl]carbamoyl}-4-methylpyrrolidin-3-yl]acetic acid] is 1.8-fold lower in IC50: 21 nM for the first, 12 nM for the second.

Compared with `C[C@H]1CN(Cc2c(Cl)cccc2C(F)(F)F)C[C@@]1(CC(=O)O)C(=O)NC1CCN(CC2=CCCCC2)CC1` [Example 3, 2-[(3S,4R)-1-{[2-Chloro-6-(trifluoromethyl)phenyl]methyl}-3-{[1-(cyclohex-1-en-1-ylmethyl)piperidin-4-yl]carbamoyl}-4-methylpyrrolidin-3-yl]acetic acid], `Cc1cccc(Cl)c1CN1C[C@H](C)[C@](CC(=O)O)(C(=O)NC2CCN(CC3=CCCCC3)CC2)C1` [Example 6, 2-[(3S,4R)-1-[(2-Chloro-6-methylphenyl)methyl]-3-{[1-(cyclohex-1-en-1-ylmethyl)piperidin-4-yl]carbamoyl}-4-methylpyrrolidin-3-yl]acetic acid] is 2.8-fold higher in IC50: 4 nM for the first, 11 nM for the second. The first is the more potent here.

Going from `C[C@H]1CN(Cc2c(Cl)cccc2Cl)C[C@@]1(CC(=O)O)C(=O)N[C@H]1CCN(CC2=CCCCC2)C1` [Example 9, 2-[(3S,4R)-3-{[(3S)-1-(Cyclohex-1-en-1-ylmethyl)pyrrolidin-3-yl]carbamoyl}-1-[(2,6-dichlorophenyl)methyl]-4-methylpyrrolidin-3-yl]acetic acid] to `C[C@H]1CN(Cc2c(Cl)cccc2C(F)F)C[C@@]1(CC(=O)O)C(=O)NC1CCN(CC2=CCCCC2)CC1` [Example 12, 2-[(3S,4R)-1-{[2-Chloro-6-(difluoromethyl)phenyl]methyl}-3-{[1-(cyclohex-1-en-1-ylmethyl)piperidin-4-yl]carbamoyl}-4-methylpyrrolidin-3-yl]acetic acid], the IC50 falls from 16 nM to 6 nM (2.7-fold). The second is the more potent here.

`CCCCCCN1CCC(NC(=O)[C@]2(CC(=O)O)CN(Cc3c(Cl)cccc3C(F)F)C[C@@H]2C)CC1` [Example 10, 2-[(3S,4R)-1-{[2-Chloro-6-(difluoromethyl)phenyl]methyl}-3-[(1-hexylpiperidin-4-yl)carbamoyl]-4-methylpyrrolidin-3-yl]acetic acid] and `C[C@H]1CN(Cc2c(Cl)cccc2C(F)F)C[C@@]1(CC(=O)O)C(=O)NC1CCN(CC2=CCCC2)CC1` [Example 13, 2-[(3S,4R)-1-{[2-Chloro-6-(difluoromethyl)phenyl]methyl}-3-{[1-(cyclopent-1-en-1-ylmethyl)piperidin-4-yl]carbamoyl}-4-methylpyrrolidin-3-yl]acetic acid] are within 1.5-fold of each other in IC50: 14 nM for the first, 16 nM for the second.

— patent EP2757103B1, “PYRROLIDINE-3-YLACETIC ACID DERIVATIVE” (Eisai R&D Management Co., Ltd., priority 2011, dated 2013)
